Experimental data published in patent US20240287033A1, “DEGRADERS OF TISSUE TRANSGLUTAMINASE 2 (TG2)” (Northwestern University, priority 2023, published 2024).
Entries after “also recorded” stand apart in the source; their conditions may differ.

What was measured:
[1] = target: T1, full-length TG2 (Homo sapiens, UniProt P21980); assay: Isothermal titration calorimetry (ITC) binding to TG2
T1 sequence (P21980 1-687): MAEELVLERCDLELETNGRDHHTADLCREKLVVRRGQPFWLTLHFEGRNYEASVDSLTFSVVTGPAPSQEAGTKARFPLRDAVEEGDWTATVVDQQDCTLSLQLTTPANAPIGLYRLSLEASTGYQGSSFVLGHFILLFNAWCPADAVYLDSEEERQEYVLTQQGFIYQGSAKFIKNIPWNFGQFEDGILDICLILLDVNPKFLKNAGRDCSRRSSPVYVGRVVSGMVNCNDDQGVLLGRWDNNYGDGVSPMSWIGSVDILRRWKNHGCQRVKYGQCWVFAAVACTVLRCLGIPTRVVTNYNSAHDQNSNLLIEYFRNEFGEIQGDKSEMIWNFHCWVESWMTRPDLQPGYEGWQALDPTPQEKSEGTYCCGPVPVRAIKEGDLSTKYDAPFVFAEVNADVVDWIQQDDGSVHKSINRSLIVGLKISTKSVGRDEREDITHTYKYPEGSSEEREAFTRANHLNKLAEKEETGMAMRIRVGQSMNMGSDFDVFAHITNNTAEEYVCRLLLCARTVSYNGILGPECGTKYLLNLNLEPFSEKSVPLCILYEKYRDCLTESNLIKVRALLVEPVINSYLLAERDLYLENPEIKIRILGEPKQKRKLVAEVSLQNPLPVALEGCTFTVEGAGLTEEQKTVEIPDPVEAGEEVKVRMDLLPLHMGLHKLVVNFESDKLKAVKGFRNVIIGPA
Protocol: Sample Preparation. Protein dilutions in PBS with 1% DMSO were prepared from stock solutions of […] in PBS. The protein dilutions were initially equilibrated on ice for 5 min, then for 20 min at 30° C. The solutions were filtered using a […] Millipore centrifugal device just prior to insertion in the ITC cell. The solubility of the protein solutions was confirmed independently by DLS (data not shown), and the concentration of each solution (after filtration) was measured with a NanoDrop 2000 Instrument.
All compound dilutions were made in PBS, and the final DMSO concentration in each solution was carefully adjusted to 1%.
ITC Experiments. All ITC experiments were performed on an Affinity Low Volume instrument (Waters/TA Instruments) equipped with a fixed 198 μL gold cell. In each experiment, 320 μL of protein solution was loaded into the ITC cell, and 200 μL of the corresponding compound was in the syringe. The data were acquired using ITCRun data acquisition software. The incremental ITC experiments consisted of multiple 2 μL injections at 50-350-second intervals with a stirring speed of 100 revolutions per minute (rpm). The Auto Equilibrate function allowed for the equilibration of the baseline to a peak-to-peak standard deviation of less than 12 nW. For each compound, separate control experiments were performed to evaluate the heat of dilution. The control experiments were set with identical parameters but performed with reaction buffer instead of protein in the ITC cell and consisted of fewer (6-10) injections.
Data Analysis. ITC data were analyzed with Nano Analyze Software (Waters/TA Instruments) using the “independent sites” model after correction for heats of dilution.

[2] = target: T2, TG2 (Homo sapiens, UniProt P21980); assay: Western blot analysis of TG2 degradation in OVCAR5 cells; format: cell-based; details: for TG2 degradation (western blot): 6 hours, 0.1-10 μM
T2 construct: tested in multiple ovarian cancer cell lines that express TG2 for their ability to degrade the protein; endogenous in cells; host or cells: OVCAR5 and SKOV3 ovarian cancer cells
T2 sequence (P21980 1-687): T1 sequence (P21980 1-687)
Protocol: (§1) SKOV3 cells were purchased from ATCC. OVCAR5 cells were obtained from Dr. Marcus Peter at Northwestern University. Cells were maintained at 37° C. in an environment of 5% CO2 and 100% humidity. The media used for culturing the cell lines are included in Table 1. Cells lines used in all experiments were at low-passages and were confirmed to be pathogen and mycoplasma-free by Charles River Animal Diagnostic Services. Cell lines were authenticated by IDEXX BioAnalytics with short tandem repeat (STR) profiling. MG132 was obtained from SelleckChem. Anti-TG2 antibody (cat #: MAB3839-I-100UG) was purchased from Millipore Sigma, GAPDH antibody (cat #: H86504M) was purchased from Meridian Bioscience.
(§2) Briefly, SKOV3 and OVCAR5 cells were seeded on 6 cm dishes and treated with different concentrations of compounds at different time points. Proteins were extracted using RIPA buffer and quantified using the Bradford assay. After gel electrophoresis and transfer, PDVF membranes were blocked with TBS-Tween 5% BSA for one hour and incubated with primary antibodies 20 (1:1000 dilution, overnight at 4° C.). After incubation with the secondary antibody (anti rabbit/mouse-horseradish peroxidase 1:1000 dilution) for 1 h at room temperature, signal was developed using SuperSignal West Pico PLUS Chemiluminescent Substrate (Thermo Fisher Scientific cat #: 34580) and captured with an ImageQuant LAS 4000 machine. To detect additional proteins, membranes were treated with Restore Western Blot Stripping Buffer (Thermo Fisher Scientific cat #: 21059), blocked, and then incubated with primary antibody.

[3] = target: T2, TG2; assay: Western blot analysis of TG2 degradation in SKOV3 cells; format: cell-based; details: for TG2 degradation (western blot): 6 hours, up to 10 μM; for TG2 degradation with proteasome inhibitor MG132 co-treatment: MG132 20 μM 8 hrs
Protocol: as §1, §2

[4] = tested on: OVCAR5 cells; assay: Cell viability assay (CCK-8), OVCAR5; format: cell-based; details: 0.1-30 μM, 5 days
Protocol: (§3) The numbers of viable cells were quantified by using the CCK-8 assay (ApexBio) following the manufacturer's directions. Absorbance was measured by a spectrophotometer at 495 nm and used estimate the viability of the cells.

[5] = tested on: SKOV3 cells; assay: Cell viability assay (CCK-8), SKOV3; format: cell-based; details: 0.1-30 μM, 5 days
Protocol: as §3

[6] = tested on: OVCAR5 cells; assay: Wound-healing (scratch) assay, OVCAR5; format: cell-based
Protocol: (§4) For the scratch assay, confluent 6-well plates were scratched with a pipette tip, washed and treated with compounds or vehicle. The plate was photographed at set time points and the area of wound closure was quantified with ImageJ. Cell migration was assessed by using Transwell inserts (8 μm pore size, Merck-Millipore, Watford, UK). Briefly, 15,000 cells were seeded in the upper chambers of trans-wells in serum-free media containing compounds or control, while media containing 10% serum was added to the lower chamber. After 18 hours, cells invaded through the transwells were fixed with warm 4% PFA for 20 min at room temperature and stained with crystal violet for 3 min. The membranes were removed, mounted on cover slides and cells were counted using a microscope at 40× magnification.

[7] = tested on: SKOV3 cells; assay: Wound-healing (scratch) assay, SKOV3; format: cell-based
Protocol: as §4

[8] = tested on: OVCAR5 cells; assay: Transwell migration assay, OVCAR5; format: cell-based
Protocol: as §4

[9] = tested on: SKOV3 cells; assay: Transwell migration assay, SKOV3; format: cell-based
Protocol: as §4

[10] = tested on: OVCAR5 cells; assay: Solid phase adhesion assay on fibronectin, OVCAR5; format: cell-based
Protocol: (§5) Briefly, wells were coated with 10 μg/ml fibronectin diluted in PBS for one hour. 30,000 cells pretreated with compounds for 6 hours were seeded and allowed to attach for 30 minutes. After washing with PBS to remove unattached cells, cells adhering to coated wells were quantified by using the CCK-8 assay (ApexBio), following the manufacturer's protocol. Relative absorbance measured at 496 nm was used to estimate the relative number of the cell attached to fibronectin coated wells.

[11] = tested on: SKOV3 cells; assay: Solid phase adhesion assay on fibronectin, SKOV3; format: cell-based
Protocol: as §5

[12] = 10 μM compound 6 hrs, 10 μM VHL ligand
[13] = dosed every 6-8 hours over 24 hours, 1 or 10 μM

| SMILES | decrease in affinity relative to the parental compound MT4 ([1]; ITC KD ratio versus MT4) [fold] | Kd ([1]; titration into TG2 at 30° C., PBS with 1% DMSO, read-out: equilibrium dissociation constant KD (ITC)) [µM] | TG2 degradation with VHL ligand as competitive inhibitor [2, 12] | TG2 levels after longer treatment (western blot) ([2]; 24 hours, single dosing) | TG2 levels after longer treatment (western blot) ([3]; 24 hours, single dosing) | time of maximal TG2 degradation ([3]; higher concentrations (10 and 30 μM)) [h] | TG2 degradation with proteasome inhibitor MG132 co-treatment ([3]; 10 μM compound 6 hrs) | TG2 degradation (western blot) [2] | TG2 levels at 24 hours after repeated dosing [2, 13] | TG2 degradation with VHL ligand as competitive inhibitor [3, 12] | TG2 degradation (western blot) [3] | TG2 levels at 24 hours after repeated dosing [3, 13] | cell death / viability [4] | cell death / viability [5] | cell migration, wound-healing assay [6] | cell migration, wound-healing assay [7] | cell migration, transwell migration assay [8] | cell migration, transwell migration assay [9] | adhesion of cells to fibronectin [10] | adhesion of cells to fibronectin [11] |
| --- | --- | --- | --- | --- | --- | --- | --- | --- | --- | --- | --- | --- | --- | --- | --- | --- | --- | --- | --- | --- |
| Cc1cc(N(C)CCOCCOCCOCCOCCOCCC(=O)N[C@H](C(=O)N2C[C@H](O)C[C@H]2C(=O)NCc2ccc(-c3scnc3C)cc2)C(C)(C)C)nc(Nc2ccc(NC(=O)Cc3ccccc3)cc2)n1 [Compound 11, (2S,4R)-1-((S)-22-(tert-buty)-2-(6-methyl-2-((4-(2-phenylacetamido)phenyl)amino)pyrimidin-4-yl)-20-oxo-5,8,11,14,17-pentaoxa-2,21-diazatricosan-23-oyl)-4-hydroxy-N-(4-(4-methylthiazol-5-yl)benzyl)pyrrolidine-2-carboxamide] | 8.8 | 68.9 | prevented degradation of TG2 | did not induce reduction in TG2 levels | did not induce reduction in TG2 levels | 6 | – | significantly reduced the level of TG2; also recorded: Degradation of TG2 was observed | persistent and dose-dependent decreased TG2 levels | prevented degradation of TG2; also recorded: but not when combined with VHL ligand | significantly reduced the level of TG2; also recorded: Degradation of TG2 was observed | persistent and dose-dependent decreased TG2 levels | No significant cell death; also recorded: no cell death was observed | No significant cell death; also recorded: no cell death was observed | potently inhibited the migration | similarly inhibited the migration | potently inhibited the migration | similarly inhibited the migration | significantly reduced the adhesion | significantly reduced the adhesion |
| Cc1cc(N(C)CCOCCC(=O)N[C@H](C(=O)N2C[C@@H](O)C[C@H]2C(=O)NCc2ccc(-c3scnc3C)cc2)C(C)(C)C)nc(Nc2ccc(NC(=O)Cc3ccccc3)cc2)n1 [Compound 12, (2S,4S)-1-((S)-3,3-dimethyl-2-(3-(2-(methyl(6-methyl-2-((4-(2-phenylacetamido)phenyl)amino)pyrimidin-4-yl)amino)ethoxy)propanamido)butanoyl)-4-hydroxy-N-(4-(4-methylthiazol-5-yl)benzyl)pyrrolidine-2-carboxamide] | – | – | – | – | – | – | – | did not induce TG2 degradation; also recorded: No degradation of TG2 was observed | – | – | did not induce TG2 degradation; also recorded: No degradation of TG2 was observed | – | – | – | did not affect cell migration | did not affect cell migration | – | – | did not affect | did not affect |
| Cc1cc(N(C)CCOCCOCCOCCOCCOCCC(=O)N[C@H](C(=O)N2C[C@@H](O)C[C@H]2C(=O)NCc2ccc(-c3scnc3C)cc2)C(C)(C)C)nc(Nc2ccc(NC(=O)Cc3ccccc3)cc2)n1 [Compound 13, (2S,4S)-1-((S)-22-(tert-butyl)-2-(6-methyl-2-((4-(2-phenylacetamido)phenyl)amino)pyrimidin-4-yl)-20-oxo-5,8,11,14,17-pentaoxa-2,21-diazatricosan-23-oyl)-4-hydroxy-N-(4-(4-methylthiazol-5-yl)benzyl)pyrrolidine-2-carboxamide] | – | – | – | – | – | – | – | did not induce TG2 degradation; also recorded: No degradation of TG2 was observed | – | – | did not induce TG2 degradation; also recorded: No degradation of TG2 was observed | – | – | – | did not affect cell migration | did not affect cell migration | – | – | did not affect | did not affect |

Second part, led by results:

| decrease in affinity relative to the parental compound MT4 ([1]; ITC KD ratio versus MT4) [fold] | Kd ([1]; titration into TG2 at 30° C., PBS with 1% DMSO, read-out: equilibrium dissociation constant KD (ITC)) [µM] | TG2 degradation with VHL ligand as competitive inhibitor [2, 12] | TG2 levels after longer treatment (western blot) ([2]; 24 hours, single dosing) | TG2 levels after longer treatment (western blot) ([3]; 24 hours, single dosing) | time of maximal TG2 degradation ([3]; higher concentrations (10 and 30 μM)) [h] | TG2 degradation with proteasome inhibitor MG132 co-treatment ([3]; 10 μM compound 6 hrs) | SMILES | TG2 degradation (western blot) [2] | TG2 levels at 24 hours after repeated dosing [2, 13] | TG2 degradation with VHL ligand as competitive inhibitor [3, 12] | TG2 degradation (western blot) [3] | TG2 levels at 24 hours after repeated dosing [3, 13] | cell death / viability [4] | cell death / viability [5] | cell migration, wound-healing assay [6] | cell migration, wound-healing assay [7] | cell migration, transwell migration assay [8] | cell migration, transwell migration assay [9] | adhesion of cells to fibronectin [10] | adhesion of cells to fibronectin [11] |
| --- | --- | --- | --- | --- | --- | --- | --- | --- | --- | --- | --- | --- | --- | --- | --- | --- | --- | --- | --- | --- |
| – | – | – | – | – | – | blocked | Cc1cc(N(C)CCOCCOCCOCCSC(C)(C)[C@H](NC(=O)C2(F)CC2)C(=O)N2C[C@H](O)C[C@H]2C(=O)NCc2ccc(-c3scnc3C)cc2)nc(Nc2ccc(NC(=O)Cc3ccccc3)cc2)n1 [Compound P404] | – | – | – | degrade TG2 | – | – | – | – | reduce the migration | – | – | – | reduce the migration and adhesion capability |
| – | – | – | – | – | – | blocked | Cc1cc(N(C)CCOCCSC(C)(C)[C@H](NC(=O)C2(F)CC2)C(=O)N2C[C@H](O)C[C@H]2C(=O)NCc2ccc(-c3scnc3C)cc2)nc(Nc2ccc(NC(=O)Cc3ccccc3)cc2)n1 [Compound P405] | – | – | – | degrade TG2 | – | – | – | – | reduce the migration | – | – | – | reduce the migration and adhesion capability |
